From US20090182033A1, “Cyclic Amine Derivatives and Their Uses” (ARGENTA DISCOVERY LTD., priority 2005, published 2009)
pKi: −log10 of the molar value.

Biological target: T1, M3 muscarinic receptor (Homo sapiens, UniProt P20309)
T1 construct: purchased
Assay: Muscarinic receptor radioligand binding assay ([3H]-NMS)
Conditions: cell membranes expressing the human muscarinic receptors, 3 hours incubation, read-out: binding affinity Ki
Description: The inhibitory effects of compounds of the present invention at the M3 muscarinic receptor were determined by the following binding assays:
Radioligand binding studies utilising [^3H]-N-methyl scopolamine ([^3H]-NMS) and commercially available cell membranes expressing the human muscarinic receptors (M2 and M3) were used to assess the affinity of muscarinic antagonists for M2 and M3 receptors. Membranes in TRIS buffer were incubated in 96-well plates with [^3H]-NMS and M3 antagonist at various concentrations for 3 hours. Membranes and bound radioligand were then harvested by filtration and allowed to dry overnight. Scintillation fluid was then added and the bound radioligand counted using a Can berra Packard Topcount scintillation counter

T1 sequence (P20309 whole entry): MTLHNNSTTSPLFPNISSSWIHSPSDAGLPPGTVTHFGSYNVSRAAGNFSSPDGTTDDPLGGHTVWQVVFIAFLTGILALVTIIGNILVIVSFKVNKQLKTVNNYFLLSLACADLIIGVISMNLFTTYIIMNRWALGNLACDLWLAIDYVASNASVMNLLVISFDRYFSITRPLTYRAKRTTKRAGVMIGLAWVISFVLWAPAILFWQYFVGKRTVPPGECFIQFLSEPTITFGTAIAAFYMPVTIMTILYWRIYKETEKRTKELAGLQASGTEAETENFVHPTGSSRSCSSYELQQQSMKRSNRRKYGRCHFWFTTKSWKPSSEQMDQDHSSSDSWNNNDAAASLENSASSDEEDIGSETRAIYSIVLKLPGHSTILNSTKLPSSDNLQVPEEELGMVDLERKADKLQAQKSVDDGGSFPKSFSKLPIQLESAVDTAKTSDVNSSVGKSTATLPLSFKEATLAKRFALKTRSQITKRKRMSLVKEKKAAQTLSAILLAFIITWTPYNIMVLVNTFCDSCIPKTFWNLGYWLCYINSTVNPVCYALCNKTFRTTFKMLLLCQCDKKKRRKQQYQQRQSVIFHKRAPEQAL

pKi: > 7.00
SMILES: C[N+](C)(CCCc1ccccc1)C1CC2CCC1C2OCc1ccccc1 [Example 6, Anti (1S, 2S) (7-benzyloxybi-cyclo[2.2.1]hept-2-yl)-dimethyl-(3-phenyl-propyl)-ammonium bromide]
